The term IC50 denotes the concentration needed to halve the response being measured. A high value points to lower potency.

The subject of one experiment is HIF. As to the kind of experiment: Assay for inhibitory activity against HIF activity (HIF1 luciferase reporter cell line). In kind it is cell-based, human. The following applies: HEK293 HIF1 reporter cell line, 1% oxygen, 6 hours, luciferase activity 50% inhibited. From the text: In order to assay the compounds of the present invention for inhibitory activity against HIF activity, the HIF1 reporter plasmid (Panomics) that is designed to control the expression of luciferase by HIF was employed. The HIF1 reporter plasmid and the pTK-Hyg plasmid (Clontech), which carries a hygromycin resistant gene, were co-transfected into the HEK293 cell line (the Korean Cell Line Bank, KCLB No. 21573), derived from the human kidney, with the aid of Effectene transfection reagent (Qiagen). Then, the cells were cultured for 3 weeks on a medium containing 200 μg/mL hygromycin to select transformants resistant to hygromycin. The cell colonies derived from single cells were transferred to 24-well plates to secure a reporter cell line. The cells were seeded at a density of 4×10^4 cells/well into 96-well plates containing DMEM and incubated for 24 hours before treatment with the compounds of the present invention at a concentration of 25 μM, 5 μM, 1 μM, 200 nM, 40 nM, 8 nM, 1.6 nM, 320 pM, 64 pM, 12.8 pM, 2.56 pM, 512 fM, 102 fM, 20.4 fM, or an amount between any two concentrations above as shown in FIGS. 1A to 1C. Under 1% oxygen condition, the cells were incubated for 6 hours and then, the medium was removed. The cells were lyzed by incubation for 5 min with 100 μL of the mixture of Bright-Glo™ luciferase assay buffer and Bright-Glo™ luciferase assay substrate (Promega). The whole cell lysate was transferred to 96-well, white plates (PerkinElmer) and measured for luminescence using Victor™ 3 (PerkinElmer). From the luminescence measurements, IC50 (a concentration of the compound at which luciferase activity was 50% inhibited) was calculated using the GraphPad Prism™ 4 program. The results are summarized in Table 2 and illustrated in FIGS. 1A to 1C.

Experiment [1] deals with tumor-induced angiogenesis (HCT116 cells). In words: Assay for inhibitory activity against in vivo tumor-induced angiogenesis (intravital microscopy). Also on record: species or system BALB/c mice. Particulars: 1 μmol in Matrigel with VEGF and HCT116 cells in abdominal window, four days, t-test p<0.01, FIGS. 4A and 4B. How it is done: The inhibitory activity of the compounds of the present invention against angiogenesis was examined in vivo using intravital microscopy. Titanium windows (diameter 19 mm, inner diameter 14 mm, thickness 0.7 mm) were implanted in the abdominal walls male BALB/c mice, 6-8 weeks old, which had been anesthetized. A mixture of 100 μL Matrigel™ 20 ng VEGF, 1×10^5 HCT116 or HCT116 cells, and 1 μmol compound 75 was inserted into the tissues inside the window which was then covered with a cover slip and fixed with a snap ring. Four days later, 50 μL of 25 mg/mL fluorescein isothiocyanate-labeled dextran (Mw 250,000 Sigma) was injected via the tail vein to examine angiogenesis. Mice were then placed on a Zeiss Axiovert™ 200M microscope with a filter set (440-475 nm, excitation wavelength; 530-550 nm, emission wavelength). Fluorescence images were recorded in each window by an electron-multiplying CCD camera (Photon Max™ 521, Princeton Instruments) and digitized for subsequent off-line analysis using the MetaMorph™ program (Universal Imaging). The angiogenesis was scored from 0 (least positive) to 5 (most positive). Observations and degree of angiogenesis are shown in FIGS. 4A and 4B, respectively. […] Accordingly, the compound of the present invention was identified to inhibit angiogenesis in vivo.

As to `CO/C=C(/C(=O)OC)c1ccccc1COc1c(F)cc(/C=N/OCc2ccccc2)cc1OC` [Compound 61, (E)-methyl 2-(2-((4-((E)-(benzyloxyimino)methyl)-2-fluoro-6-methoxyphenoxy)methyl)phenyl)-3-methoxyacrylate], in the experiment with HIF (Homo sapiens), the IC50 stood at 5540 nM.
Same read-out and setting: next, `CO/C=C(/C(=O)OC)c1ccccc1COc1ccc(F)c(OCc2ccccc2)c1F` [Compound 62, (E)-methyl 2-(2-((3-(benzyloxy)-2,4-difluorophenoxy)methyl)phenyl)-3-methoxyacrylate]: 200 nM.
As to `CO/C=C(/C(=O)OC)c1ccccc1COc1cc(C)c(/C=N/Oc2ccccc2)cc1C` [Compound 63, (E)-methyl 2-(2-((2,5-dimethyl-4-((E)-(phenoxyimino)methyl)phenoxy)-methyl)phenyl)-3-methoxyacrylate], the IC50 in the experiment with HIF (Homo sapiens) is 40 nM.
Still for that read-out and setting: the result for `CCCO/N=C/c1cc(F)c(OCc2ccccc2/C(=C\OC)C(=O)OC)c(OC)c1` [Compound 64, (E)-methyl 2-(2-((2-fluoro-6-methoxy-4-((E)-(propoxyimino)methyl)-phenoxy)methyl)phenyl)-3-methoxyacrylate] reads 2620 nM.
`CCCOc1c(F)ccc(OCc2ccccc2/C(=C\OC)C(=O)OC)c1F` [Compound 65, (E)-methyl 2-(2-((2,4-difluoro-3-propoxyphenoxy)methyl)phenyl)-3-methoxyacrylate] showed a half-inhibitory concentration (IC50) in the experiment on HIF (Homo sapiens) of 1000 nM.
In the experiment on HIF (Homo sapiens), `CO/C=C(/C(=O)OC)c1ccccc1COc1c(F)cc(/C=N/OCCc2ccccc2)cc1OC` [Compound 66, (E)-methyl 2-(2-((2-fluoro-6-methoxy-4-((E)-(phenethoxyimino)methyl)-phenoxy)methyl)phenyl)-3-methoxyacrylate] gave an IC50 of 900 nM.
Regarding `CO/C=C(/C(=O)OC)c1ccccc1COc1ccc(/C=N/OCC2CC2)cc1C` [Compound 67, (E)-methyl 2-(2-((4-((E)-(cyclopropylmethoxyimino)methyl)-2-methylphenoxy)methyl)phenyl)-3-methoxyacrylate], half-maximal inhibition in the experiment with HIF (Homo sapiens) (IC50) was put at 60 nM.
Turning to `CO/C=C(/C(=O)OC)c1ccccc1COc1cc(C)c(/C=N/OCC2CC2)cc1C` [Compound 68, (E)-methyl 2-(2-((4-((E)-(cyclopropylmethoxyimino)methyl)-2,5-dimethylphenoxy)methyl)phenyl)-3-methoxyacrylate], in the experiment on HIF (Homo sapiens), inhibition was half-maximal at 7 nM (IC50).
The compound `CO/C=C(/C(=O)OC)c1ccccc1COc1cc(C)c(/C=N/OC2CCCC2)cc1C` [Compound 69, (E)-methyl 2-(2-((4-((E)-(cyclopentyloxyimino)methyl)-2,5-dimethylphenoxy)methyl)phenyl)-3-methoxyacrylate] registered an IC50 with HIF (Homo sapiens) of 30 nM.
`CO/C=C(/C(=O)OC)c1ccccc1COc1ccc(/C=N/OC2CCCC2)cc1C` [Compound 70, (E)-methyl 2-(2-((4-((E)-(cyclopentyloxyimino)methyl)-2-methylphenoxy)methyl)phenyl)-3-methoxyacrylate] yielded an IC50 in the experiment with HIF (Homo sapiens) of 180 nM.
Compound `CO/C=C(/C(=O)OC)c1ccccc1COc1cc(C)c(/C=N/OCCCOc2ccccc2)cc1C` [Compound 71, (E)-methyl 2-(2-((2,5-dimethyl-4-((E)-(3-phenoxypropyloxyimino)-methyl)phenoxy)methyl)phenyl)-3-methoxyacrylate] yielded a concentration for half-maximal inhibition (IC50) in the experiment on HIF (Homo sapiens) of 20 nM.
Compound `CO/C=C(/C(=O)OC)c1ccccc1COc1cc(C)c(/C=N/OCc2cccc(OC)c2)cc1C` [Compound 72, (E)-methyl 2-(2-((4-((E)-(3-methoxybenzyloxyimino)methyl)-2,5-dimethylphenoxy)methyl)phenyl)-3-methoxyacrylate] gave an IC50 in the experiment with HIF (Homo sapiens) of 180 nM.
In the experiment with HIF (Homo sapiens), `CO/C=C(/C(=O)OC)c1ccccc1COc1cc(C)c(/C=N/OCc2ccccn2)cc1C` [Compound 73, (E)-methyl 2-(2-((4-((E)-(pyridin-2-ylmethoxyimino)methyl)-2,5-dimethylphenoxy)methyl)phenyl)-3-methoxyacrylate] displayed an IC50 of 30 nM.
On the same count and under the same terms, the result for `CO/C=C(/C(=O)OC)c1ccccc1COc1cc(C)c(/C=N/OCc2ccncc2)cc1C` [Compound 74, (E)-methyl 2-(2-((4-((E)-(pyridin-4-ylmethoxyimino)methyl)-2,5-dimethylphenoxy)methyl)phenyl)-3-methoxyacrylate] reads 60 nM.
As for `CO/C=C(/C(=O)OC)c1ccccc1COc1cccc(/C=N/OCCOc2ccccc2)c1` [Compound 75, (E)-methyl 2-(2-((3-((E)-(2-phenoxyethoxyimino)methyl)phenoxy)-methyl)phenyl)-3-methoxyacrylate], the midpoint of inhibition in the experiment on HIF (Homo sapiens), the IC50, lay at 150 nM. In addition, the “degree of angiogenesis (score 0 to 5) versus HCT-116 group” value in experiment [1] is given as “significant difference”.
`CO/C=C(/C(=O)OC)c1ccccc1COc1cccc(OCCN2CCOCC2)c1` [Compound 76, (E)-methyl 2-(2-((3-(2-morpholinoethoxy)phenoxy)methyl)phenyl)-3-methoxyacrylate] returned an IC50 in the experiment with HIF (Homo sapiens) of 1500 nM.
Still for that read-out and setting: the result for `CO/C=C(/C(=O)OC)c1ccccc1COc1cc(C)c(/C(C)=N/OC)cc1C` [Compound 77, (E)-methyl 2-(2-((2,5-dimethyl-4-((E)-1-(methoxyimino)ethyl)phenoxy)-methyl)phenyl)-3-methoxyacrylate] reads 20 nM; that for `CCO/N=C(\C)c1cc(C)c(OCc2ccccc2/C(=C\OC)C(=O)OC)cc1C` [Compound 78, (E)-methyl 2-(2-((2,5-dimethyl-4-((E)-1-(ethoxyimino)ethyl)phenoxy)-methyl)phenyl)-3-methoxyacrylate], 20 nM.
For the compound `CO/C=C(/C(=O)OC)c1ccccc1COc1cc(C)c(/C(C)=N/OCc2ccccn2)cc1C` [Compound 79, (E)-methyl 2-(2-((2,5-dimethyl-4-((E)-1-(pyridin-2-ylmethoxyimino)-ethyl)phenoxy)methyl)phenyl)-3-methoxyacrylate], half-maximal inhibition in the experiment on HIF (Homo sapiens) (IC50) was put at 61 nM.
Same read-out and setting: the result for `CO/C=C(/C(=O)OC)c1ccccc1COc1cc(C)c(/C(COC)=N/OC)cc1C` [Compound 80, (E)-methyl 3-methoxy-2-(2-((4-((Z)-2-methoxy-1-(methoxyimino)ethyl)-2,5-dimethylphenoxy)methyl)phenyl)acrylate] reads 9 nM; that for `CO/C=C(/C(=O)OC)c1ccccc1COc1cc(C)c(-c2cnco2)cc1C` [Compound 81, (E)-methyl 3-methoxy-2-(2-((2,5-dimethyl-4-(oxazol-5-yl)phenoxy)-methyl)phenyl)acrylate], 37 nM.
The compound `CO/C=C(/C(=O)OC)c1ccccc1COc1cc(C)c(-c2ccn(C)n2)cc1C` [Compound 82, (E)-methyl 3-methoxy-2-(2-((2,5-dimethyl-4-(1-methyl-1H-pyrazol-3-yl)phenoxy)methyl)phenyl)acrylate] came in with an IC50 in the experiment on HIF (Homo sapiens) of 2 nM.
Regarding “(E)-methyl 2-(2-((3-hydroxy-5-(2-phenoxyethoxy)phenoxy)methyl)-phenyl)-3-methoxyacrylate [Compound 20]”, in the experiment with HIF, the IC50 stood at 6060 nM.

Values taken from patent publication US8772290B2, “Alpha-arylmethoxyacrylate derivative, preparation method thereof, and pharmaceutical composition containing same” (Oscotech Inc., priority 2010, dated 2014).
